Test: Nanoflow ESI (NanoMate-QTOF), RNLC-NSI-MS of drug and metabolites
Settings: Vicriviroc and its metabolites, relative LC-MS response, M35 = 100
Procedure: For experiments described herein, high performance liquid chromatography (HPLC) separations of analytes were performed at room temperature using the first HPLC system referred to in FIG. 1 as “analytical HPLC”. […] The analytical HPLC column effluent was split (mixing tee 1 or T-1 in FIG. 1) so that 15-25% of the flow was directed to a second mixing tee (T-2 in FIG. 1) connected to the NSI source and 75-85% diverted to an auxiliary detector (e.g. a radioactivity detector (10-11) or a charged aerosol detector (12-13)). Separation of metabolites was achieved using the analytical HPLC system and programmed linear changes in mobile phase composition as shown in Table 1.
A second HPLC pump, referred to in FIG. 1 as the “Response Normalizing HPLC”, was used to deliver an exactly inverse gradient. Inverse gradient was achieved by switching the aqueous mobile phase to pump B and the organic mobile phase to pump A and using the same gradient program as the one used in the analytical HPLC system. The flow rate of the Response Normalizing HPLC system was maintained between 0.1 and 0.2 mL/min. […] The “Response Normalizing Flow” was introduced into the NSI source via a second mixing tee (T-2). HPLC flows from the analytical HPLC and from the “Response Normalizing HPLC” were combined in the second mixing tee (T-2). The combined flow was delivered to the NSI (NanoMate, API, or any other ion sources) via a union (referred in FIG. 1 as “bulkhead”). For NSI experiments, the combined flow is further split using a mixing tee. The split ratio within the NSI source was manipulated by adjusting the various diameters and lengths of fused silica capillary tubing used to deliver the flow to MS and the fraction collector/waste. Approximately 1-5% of the combined flow was delivered to the NSI source for MS analysis.

In the case of `COC[C@@H](c1ccc(C(F)(F)F)cc1)N1CCN(C2(C)CCN(C(=O)c3c(C)ncnc3C)CC2)C[C@@H]1C` [Vicriviroc], the “Nanoflow ESI (NanoMate-QTOF) 0.15 mL/min Normalizing HPLC flow” value (0.15 mL/min normalizing flow) is reported as 23.0, the “Nanoflow ESI (NanoMate-QTOF) 0.2 mL/min Normalizing HPLC flow” value (0.2 mL/min normalizing flow) is reported as 14.3 and the “Nanoflow ESI (NanoMate-QTOF) Without Normalizing HPLC flow” value (no normalizing flow) is reported as 50.0.

From patent publication US20080173808A1, “PROCESS AND DEVICE FOR RESPONSE NORMALIZED LIQUID CHROMATOGRAPHY NANOSPRAY IONIZATION MASS SPECTROMETRY (RNLC-NSI-MS)” (Schering Corporation, priority 2007, published 2008)
